Drawing on US11891366B1, “4-methoxy-n′-(2-(5-phenyl-1,3,4-oxadiazol-2-ylthio)acetoxy)benzimidamide as an antimicrobial compound” (KING FAISAL UNIVERSITY, priority 2023, dated 2024), this text covers inhibition zone for two compounds.

What all share (type): cell-based
One test relates to Bacillus Cereus. The test can be described thus: Agar plate disc-diffusion, antibacterial activity (inhibition zone). As to conditions: nutrient agar, 37° C., 48 hours. The procedure: (§1) The agar plate disc-diffusion method was applied. Sterilized filter papers (6 mm in diameter) were wetted with 10 μL of a solution 4-methoxy-N′-(2-(5-phenyl-1,3,4-oxadiazol-2-ylthio)acetoxy)benzimidamide (3) to be tested, containing 10 mg/mL in DMSO, and the discs were allowed to air dry. The discs were then placed onto the surface of agar plates (nutrient agar for bacteria and Sabouraud's dextrose agar for fungi) seeded with the test organism. Each plate contained 15 mL of the agar medium, previously seeded with 0.2 mL of the broth culture of each organism pregrown for 18 hours. The plates were incubated at 37° C. for 48 hours, and 72 hours for fungi. The inhibition zones were measured in millimeters (mm). Discs impregnated with DMSO were used as a control, and its inhibition zone was subtracted from the tested compound actual inhibition zone.
Background: Agar diffusion results depend on both activity and mobility in agar.

The next test deals with Escherichia coli. The test is described as above. As to conditions: nutrient agar, 37° C., 48 hours. The procedure: as §1, with “Sterilized filter papers (6 mm in diameter) were wetted with 10 μL of a solution 4-methoxy-N′-(2-(5-phenyl-1,3,4-oxadiazol-2-ylthio)acetoxy)benzimidamide (3) to be tested, containing 10 mg/mL in DMSO, and the discs were allowed to air dry.” left out

In another test the test system is Pseudomonas aeruginosa. The test is described as above. The following applies: nutrient agar, 37° C., 48 hours. The procedure:
as §1, with “Sterilized filter papers (6 mm in diameter) were wetted with 10 μL of a solution 4-methoxy-N′-(2-(5-phenyl-1,3,4-oxadiazol-2-ylthio)acetoxy)benzimidamide (3) to be tested, containing 10 mg/mL in DMSO, and the discs were allowed to air dry.” left out

Another test relates to Staphylococcus aureus. The test is described as above. The following applies: nutrient agar, 37° C., 48 hours. The procedure: as §1, with “Sterilized filter papers (6 mm in diameter) were wetted with 10 μL of a solution 4-methoxy-N′-(2-(5-phenyl-1,3,4-oxadiazol-2-ylthio)acetoxy)benzimidamide (3) to be tested, containing 10 mg/mL in DMSO, and the discs were allowed to air dry.” left out

In another test the test system is Aspergillus flavus. As to the kind of experiment: Agar plate disc-diffusion, antifungal activity (inhibition zone). As to conditions: Sabouraud's dextrose agar, 37° C., 72 hours. The procedure: as §1, with “Sterilized filter papers (6 mm in diameter) were wetted with 10 μL of a solution 4-methoxy-N′-(2-(5-phenyl-1,3,4-oxadiazol-2-ylthio)acetoxy)benzimidamide (3) to be tested, containing 10 mg/mL in DMSO, and the discs were allowed to air dry.” left out

In test [1] the test system is Chrysosporium keratinophilum. The description is as above. The following applies: Sabouraud's dextrose agar, 37° C., 72 hours. The procedure:
as §1, with “Sterilized filter papers (6 mm in diameter) were wetted with 10 μL of a solution 4-methoxy-N′-(2-(5-phenyl-1,3,4-oxadiazol-2-ylthio)acetoxy)benzimidamide (3) to be tested, containing 10 mg/mL in DMSO, and the discs were allowed to air dry.” left out

Setting [2] is: A = concentration of comp. = 10,000 μL.
Where [3] appears, read: B = concentration of comp. = 30,000 μL.
Where [4] appears, read: C = concentration of comp. = 50,000 μL.

As to `O=C(O)c1cn(C2CC2)c2cc(N3CCNCC3)c(F)cc2c1=O` [Cip., ciprofloxacin], the inhibition zone in the test with Bacillus Cereus (setting [2]) was 29 mm; in the test with Bacillus Cereus (setting [3]), 30 mm; with Bacillus Cereus (setting [4]), 42 mm; in the test on Escherichia coli (setting [2]), 30 mm; with Escherichia coli (setting [3]), 39 mm; with Escherichia coli (setting [4]) it was 60 mm. Besides, the inhibition zone in the test with Pseudomonas aeruginosa (setting [2]) stood at 29 mm; with Pseudomonas aeruginosa (setting [3]), 30 mm; in the test on Pseudomonas aeruginosa (setting [4]), 53 mm; with Staphylococcus aureus (setting [2]) it was 43 mm; in the test on Staphylococcus aureus (setting [3]) it was 44 mm; in the test on Staphylococcus aureus (setting [4]), 53 mm. Also, the inhibition zone in the test with Aspergillus flavus (setting [2]) is on record as 29 mm; with Aspergillus flavus (setting [3]), 30 mm; in the test with Aspergillus flavus (setting [4]), 42 mm; in test [1] (setting [2]) it was 29 mm; in test [1] (setting [3]), 30 mm; in test [1] (setting [4]), 53 mm.

Consider `COc1ccc(/C(N)=N/OC(=O)CSc2nnc(-c3ccccc3)o2)cc1` [Compound 3, 4-methoxy-N′-(2-(5-phenyl-1,3,4-oxadiazol-2-ylthio)acetoxy)benzimidamide], for which the inhibition zone with Bacillus Cereus (setting [2]) is on record as 27 mm; with Bacillus Cereus (setting [3]), 29 mm; in the test on Bacillus Cereus (setting [4]), 41 mm; in the test on Escherichia coli (setting [2]) it was 26 mm; with Escherichia coli (setting [3]), 34 mm; with Escherichia coli (setting [4]) it was 49 mm. For the same compound, the inhibition zone was 23 mm in the test on Pseudomonas aeruginosa (setting [2]); 28 mm in the test on Pseudomonas aeruginosa (setting [3]); 41 mm with Pseudomonas aeruginosa (setting [4]); 22 mm in the test with Staphylococcus aureus (setting [2]); 30 mm in the test on Staphylococcus aureus (setting [3]); 45 mm in the test with Staphylococcus aureus (setting [4]). Moreover, the inhibition zone with Aspergillus flavus (setting [2]) is 21 mm; in the test with Aspergillus flavus (setting [3]) it was 25 mm; in the test with Aspergillus flavus (setting [4]), 38 mm; in test [1] (setting [2]), 26 mm; in test [1] (setting [3]), 28 mm; in test [1] (setting [4]) it was 41 mm.
